These results are taken from patent US7307101B2, “Use of 20-HETE synthesizing enzyme inhibitors as therapy for cerebral vascular disease” (MCW Research Foundation, Inc., priority 2000, dated 2007).

In data set [1] the test system is rats with SAH. The data set can be described thus: Effect on rCBF when given after SAH has been established. It is filed as in vivo, rat. The following applies: 1 mg/kg i.v. 30 min after induction of SAH. The method, then:
Animals. Experiments were performed on male Sprague-Dawley rats (9-12 weeks old), purchased from Harlan Sprague-Dawley, Inc. (Indianapolis, Ind.). The rats were housed in an Animal Care Facility at the Medical College of Wisconsin, which is approved by the American Association for the Accreditation of Laboratory Animal Care. All protocols involving animals received approval by the Animal Care Committee of the Medical College of Wisconsin.
Surgical preparation. Rats were anesthetized with ketamine (Ketaject® 20 mg/kg i.m.) and thiobutabarbital sodium (Inactin® 50 mg/kg i.p.). […] Endtidal partial pressure of carbon dioxide (pCO2) was controlled at 38 mmHg by adjusting the minute ventilation according to the reading of an CO2 analyzer (Capstar-100 IITC, Inc., Woodland Hills, Calif.). Blood samples were collected at the beginning and end of the experiment and analyzed using a blood gas analyzer (ABL 300, Radiometer, Copenhagen, Denmark) to validate the endtidal pCO2 readings. […]
Cerebral blood flow (CBF) was continuously measured using laser Doppler flowmetry through a thinned cranial window. […] A PF 103 laser Doppler flow (LDF) probe was positioned over the cranial window and CBF was monitored using a PF-3 laser Doppler flowmeter (Perimed, Stockholm, Sweden).
0.3 ml of blood was injected into the Cistema Magna of rats to induce SAH. […] The CBF data are expressed as percentage change from control.

Data set [2] is described as follows: HET0016 levels in plasma and brain. The following applies: rat; for concentration at 1 h: iv. It is filed as in vivo. The method, then: Measurement of HET0016 levels in plasma and brain. […] After a one hour equilibration period, the rats were anesthesized with pentobarbital and a blood sample was collected from the jugular vein. The rats were then sacrificed and the brain was removed, weighed and homogenized in 3 volumes of 0.9% NaCl solution using a Physcotron homogenizer (Nition-Ikakikai, Chiba, Japan). […] The samples were mixed with 1 ml of acetonitrile, centrifuged and 20 μl of the clear supernatant was injected into the LC/MS. The samples were separated on a 200×4.6 mm Capcellpak UG 120 ODS column (Shiseido Corp., Tokyo, Japan) and eluted with acetonitrile:water (72/28). Peaks were monitored using a Sciex API 3000 mass spectrometer (Perkin Elmer Sciex, Ontario, Canada) tuned to detect the precursor to product transitions specific for each analyte.

For data set [3], the system named is rats with MCA occlusion. The data set can be described thus: Infarct volume after transient MCA occlusion. It is filed as in vivo, rat. To be noted: 24 h. The method, then:
Adult male Wistar rats (200-250 g) were anesthetized with 2% halothane in O2 gas. The right external carotid artery (ECA) was carefully dissected. A silicon-coated suture (18 mm-long) was inserted from the lumen of the ECA to the right internal carotid artery (ICA) to occlude the origin of the right middle cerebral artery (MCA). Body temperature was maintained at 37° C. with a heating pad. […] One hour after MCA occlusion, the thread was removed to allow reperfusion of the ischemic area.
To measure infarct volume, rats were killed after 24 hours of reperfusion following transient occlusion of the MCA. Brains were flushed transcardially with physiological saline, removed from the skull, and cut into 2-mm coronal sections. The slices were immersed in 2% triphenyltetrazolium chloride (TTC) solution at 37° C. for 30 minutes.
All values were presented as mean±SEM. For statistical analysis, Dunnett's multiple-range test was used.

Data set [4] concerns the target T1, PGH1 synthase (Ovis aries, UniProt P05979).
T1 construct: the purified enzyme from ram seminal vesicles PGH1 synthase; purchased Cayman Chemical Co., Ann Arbor, Mich; host or cells: ram seminal vesicles (tissue-purified)
T1 sequence (P05979 25-600): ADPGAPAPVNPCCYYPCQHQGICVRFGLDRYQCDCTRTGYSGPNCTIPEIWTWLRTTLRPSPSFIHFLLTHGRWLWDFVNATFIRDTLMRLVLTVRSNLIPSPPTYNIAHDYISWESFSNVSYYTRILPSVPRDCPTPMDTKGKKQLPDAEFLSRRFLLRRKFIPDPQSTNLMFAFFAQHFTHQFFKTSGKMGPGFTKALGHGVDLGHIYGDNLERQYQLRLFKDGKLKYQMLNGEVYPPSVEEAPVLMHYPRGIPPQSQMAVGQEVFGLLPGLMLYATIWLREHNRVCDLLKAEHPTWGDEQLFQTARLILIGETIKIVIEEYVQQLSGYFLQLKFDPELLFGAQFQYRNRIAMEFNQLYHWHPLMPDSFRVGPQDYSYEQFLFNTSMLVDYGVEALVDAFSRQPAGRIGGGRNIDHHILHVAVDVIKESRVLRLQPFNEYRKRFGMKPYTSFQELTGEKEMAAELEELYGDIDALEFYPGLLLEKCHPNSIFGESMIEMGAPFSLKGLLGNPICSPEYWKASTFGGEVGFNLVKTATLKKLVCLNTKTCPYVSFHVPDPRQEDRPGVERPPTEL
The data set can be described thus: COX activity (conversion of AA to PGE2). It is filed as biochemical, ram. To be noted: 10^−6 M. The method, then: Reaction mixtures were incubated at 37° C. for 2 min before the addition of AA and for 2 min thereafter. All samples were run in duplicate. Amounts of PGE2 were determined by EIA after 100-400 times dilution with Tris buffer.

For the molecule `CCCCc1ccc(N=CNO)c(C)c1` [HET0016, N-hydroxy-N′-(4-butyl-2-methylphenyl)-formamidine], the “time after treatment at which cerebral blood flow was back to the control value” in data set [1] was found to be 70 min. Moreover, the concentration at 1 h in data set [2] (brain, 1 hr after i.v. 10 mg/kg) is 7.2 µM; in data set [2] (brain, 1 hr after i.v. 10 mg/kg, n=3), 1490 ng/g; in data set [2] (plasma, 1 hr after i.v. 10 mg/kg, n=3) it was 570 ± 90 ng/mL; in data set [2] (plasma, one hour after i.v. 10 mg/kg body weight), 2.8 µM. In data set [2] (1 hr after i.v. 10 mg/kg), this molecule had an HET0016 level in plasma (molar) of 2.8 µM. Also, the infarct volume is listed as 10.7±2.6% in data set [3] (0.1 mg/kg i.v. just after reperfusion, n=10) and 9.7±2.1% in data set [3] (1 mg/kg i.v. just after reperfusion, n=17). The same molecule had an inhibition at 1 µM in data set [4] of 20%.

What is called inhibition is the relative decrease from the control value, in per cent. High values mean a strong effect, low ones a weak effect.
